Values joined by “and” are separate entries in the source; they are usually repeats but may differ in a detail not shown here. Identical values can stand only once.

In one series the test system is DSS-induced colitis. In words: DSS-induced colitis in mice: TCS with or without GUSi (colon length, histology, FACS, qRT-PCR). Format: in vivo. The text has this: After another 3 weeks, the mice were stimulated with 2% DSS (molecular weight = 36–50 KDa, MP Biomedicals, Solon, OH) in drinking water for 6 days to induce colitis. At end of the experiment, the mice were sacrificed for analysis.
(§1) Total RNA of colon tissues and MC38 cells were isolated using Trizol reagent (Ambion) according to the manufacturer’s instruction. RNA was reverse transcribed into cDNA using the High Capacity cDNA Reverse Transcription kit (Applied Biosystem) according to the manufacturer’s instructions. In all, 20 μL PCR reactions were prepared using the Maxima SYBR Green Master Mix (Thermo Fisher Scientific), and qPCR was carried out using a DNA Engine Opticon System (Bio-Rad Laboratories). Mouse-specific primer sequences (Thermo Fisher Scientific) used to detect inflammatory biomarkers are listed in Supplementary Table S6. Gapdh expression was used as an internal control.
Distal colon tissues were dissected, washed with cold PBS, and digested with Hank’s balanced salt solution (HBSS, Lonza) supplemented with 1 mM dithiothreitol (DTT) and 5 mM EDTA at 4 °C (colon […] cells). The released cells were stained with FITC-conjugated anti-mouse CD45 (BioLegend, Clone: 30-F11), PerCP/Cy5.5-conjugated anti-mouse F4/80 (BioLegend, Clone: BM8), and PE/Cy7-conjugated anti-mouse Ly-6G/Ly-6C (GR-1) (BioLegend, Clone: RB6-8C5) with a 1:100 diluted solution. Cells were stained with Zombie Violet^TM dye (Zombie Violet^TM Fixable Viability Kit; BioLegend) according to the manufacturer’s instructions to exclude dead cells. Gating and cell identification strategies are as follows: briefly, cell doublets and clumps were eliminated using FSC-A gating and debris was eliminated using FSC-A vs SSC-A. Dead cells were gated out using Zombie Violet™ dye. Flow cytometry data were acquired on a BD LSR Fortessa^TMcell analyzer (Becton Dickinson, Franklin Lakes, NJ) and analyzed using FlowJo software (FlowJo, LLC). Gating strategies used for the identification of major immune cell populations are shown in Supplementary Fig. S17.
The dissected colon tissues were fixed in 10% neutral buffered formalin (Thermo Fisher Scientific) for 48 h. After dehydration, the tissues were embedded in paraffin and sliced ([…]) by Rotary Microtome (Thermo Fisher Scientific). The slices were dewaxed in serial xylene and rehydrated through ethanol solutions, stained with hematoxylin and eosin (Sigma-Aldrich), and images were obtained under 200× magnification (BZ-X700 microscope, Keyence, Itasca, IL). The histologic scores were evaluated by a blinded observer according to the following measures: crypt architecture, degree of inflammatory cell infiltration, muscle thickening, goblet cell depletion, and crypt abscess. The histologic damage score is the sum of each individual score.

The nature of series [1]: Antibiotic suppression of gut microbiota: TCS colonic metabolism in mice (80 ppm TCS diet, 4 weeks). In kind it is in vivo. Particulars: 80 ppm TCS via diet 4 weeks; antibiotic cocktail vs none. The text has this:
This antibiotic composition was used in previous studies by others[20],[21] and us[22],[23]. […] After another 4 weeks, the mice were sacrificed, and their tissues were collected for LC-MS/MS analysis.

The nature of series [2]: LC-MS/MS profiling of TCS metabolism in mice (TCS via diet for 4 weeks). Particulars: for concentration of TCS, TCS-G, TCS-Sulfate: individual mice.
Series [3] can be described thus: TCS colonic metabolism in conventional vs germ-free Swiss Webster mice. In kind it is in vivo. Particulars: 6 h after oral gavage of 8 mg/kg TCS, individual mice.
Series [4] in a line: LC-MS/MS of TCS and its metabolites in human stool and urine after use of TCS-containing personal care products.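 On Profile in stool (%): molar share of summed TCS plus TCS-G plus TCS-sulfate.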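 On Profile in urine (%): molar share of summed TCS plus TCS-G plus TCS-sulfate.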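 On average molar concentration ratio: molar share of summed TCS plus TCS-G plus TCS-sulfate.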 In kind it is in vivo. Particulars: for TCS metabolites in human stool / TCS metabolites in human urine: Treatment TCS, individual subjects; for average molar concentration ratio: TCS-exposed subjects. An excerpt:
To broaden our understanding of TCS metabolic profiles in the gut, we next analyzed TCS metabolism in human subjects. We utilized urine and stool samples from a previous study in which the recruited human subjects were first subjected to a washout period (no usage of TCS-containing products), then were randomly assigned to two groups that used personal care products like toothpaste with or without TCS for up to four months (see the scheme of the experiment in Fig. 1c)[15]. Previous data had established that humans are primarily exposed to TCS via toothpaste that provides a direct oral route to the gastrointestinal tract[16],[17].

A short description of series [5]: Antibiotic suppression of gut microbiota: kinetics of TCS colonic metabolism after one-time oral gavage. Particulars: within the 24-h period; 8 mg/kg TCS oral gavage.
Another series concerns MC38 cells. In words: Inflammatory response of MC38 intestinal epithelial cells (Il-6 RT-qPCR, IL-6 ELISA). In kind it is cell-based, mouse. How it is done: MC38 intestinal epithelial cells were cultured in Dulbecco’s Modified Eagle Medium (DMEM) supplemented with 10% fetal bovine serum (FBS) and incubated at 37 °C under an atmosphere of 5% CO2. MC38 cells were seeded at 20% confluency and left to settle overnight. Cells were then treated with either 1 μM TCS, TCS-G, or vehicle (DMSO). After 48 h, cells were harvested for RT-qPCR analysis. Cell medium was collected for ELISA analysis using the CBA Mouse Inflammation Kit (BD Sciences) according to the manufacturer’s instructions, and data were acquired using a BD LSR Fortessa flow cytometer (BD Biosciences) and analyzed using FlowJo software (Treestar).
as §1
a. Cultured murine intestinal epithelial MC38 cells were treated with 1 μM of TCS or TCS-G for 48 h prior to
studying inflammatory responses. b. TCS increases the expression of Il-6, which encodes the pro-inflammatory
n = 3 per group from three independent experiments, * P < 0.05, ** P < 0.01, *** P < 0.001.
A general note: Quantitative PCR measures a nucleic acid by following its amplification.

Setting [6] is: DSS colitis mice, FACS, individual animals, Fig.5d.
[7] abbreviates: DSS colitis mice, gene expression, individual animals, Fig.5e.
[8] abbreviates: treatment time 0 months (after washout).

Consider `C1CCc2c(c(N3CCOCC3)nc3sc4c(N5CCNCC5)nnnc4c23)C1` [GUSi, UNC10201652], for which the “colitis-enhancing effects of TCS with co-administration of GUSi” value in the series on DSS-induced colitis (1 mg/kg GUSi via oral gavage, 80 ppm TCS via diet, DSS-induced colitis, all measures) is recorded as “eliminated”. Further, in the series on DSS-induced colitis (setting [6]), the “cd45+(%)” value is 3.37% and 1.44% and 2.8% and 3.35% and 3.49% and 6.62% and 4.63% and 3.22%; the “f4/80+ (%)” value is 5.88% and 5.56% and 2.33% and 7.14% and 0% and 1.72%; the “gr-1+ (%)” value was 0% and 2.94% and 5.56% and 1.43% and 2.13%. In addition, in the series on DSS-induced colitis (setting [7]), the Il-6 was 0.5774 and 0.763 and 0.8366 and 0.5822 and 0.577 and 0.6095; the Il-17 was 0.5948 and 0.2298 and 0.792 and 0.6818 and 0.4596 and 0.7005; the Il-23 was 0.7347 and 0.9268 and 1.245 and 0.9397 and 0.6326 and 1.199; the Mcp1 is 0.841 and 0.7995 and 1.048 and 0.7621 and 1.517 and 1.4734 and 0.8163. Further, the Tnf-α in the series with DSS-induced colitis (setting [7]) is 1.652 and 0.2802 and 0.2939 and 0.2088 and 0.6209 and 0.7192. Moreover, the HE with DSS-induced colitis (DSS colitis mice, histology score, individual animals, Fig.5c) is 4 and 3 and 6. Besides, the “colon length (cm)” value in the series with DSS-induced colitis (DSS colitis mice, individual animals, Fig.5b) was 6.9 cm and 7.5 cm and 7.1 cm and 7.2 cm and 6.7 cm.

Turning to `O=C(O)C1OC(Oc2cc(Cl)ccc2Oc2ccc(Cl)cc2Cl)C(O)C(O)C1O` (stereo not shown) [TCS-G, triclosan-glucuronide], in series [1], the “change of concentration in the fecal content by antibiotic treatment” value was “sixfold”. In addition, the “concentration of TCS, TCS-G, TCS-Sulfate” value was 0.45 pmol/mg and 0.99 pmol/mg and 0.44 pmol/mg and 0.88 pmol/mg and 0.62 pmol/mg and 0.91 pmol/mg in series [2] (Cecum (digesta), 80 ppm TCS via diet 4 weeks); 0 pmol/mg in series [2] (Colon digesta, 1 ppm TCS in diet 4 weeks); 0.02 pmol/mg in series [2] (Colon digesta, 10 ppm TCS in diet 4 weeks); 0.1 pmol/mg in series [2] (Colon digesta, 80 ppm TCS in diet 4 weeks); 0.06 pmol/mg in series [2] (Feces, 1 ppm TCS in diet 4 weeks); 0.13 pmol/mg in series [2] (Feces, 10 ppm TCS in diet 4 weeks). Also, the “concentration of TCS, TCS-G, TCS-Sulfate” value is 0.35 pmol/mg and 0.43 pmol/mg in series [2] (Feces, 80 ppm TCS in diet 4 weeks); 2.11 pmol/mg and 1.13 pmol/mg and 0.90 pmol/mg and 1.39 pmol/mg in series [2] (Heart, 80 ppm TCS via diet 4 weeks); 14.84 pmol/mg and 26.51 pmol/mg and 44.77 pmol/mg and 37.15 pmol/mg in series [2] (SI 1st section (digesta), 80 ppm TCS via diet 4 weeks); 56.00 pmol/mg and 24.46 pmol/mg and 19.60 pmol/mg and 25.12 pmol/mg and 26.25 pmol/mg and 17.70 pmol/mg and 32.78 pmol/mg and 21.27 pmol/mg and 57.45 pmol/mg and 7.43 pmol/mg in series [2] (SI 2nd section (digesta), 80 ppm TCS via diet 4 weeks); 27.59 pmol/mg and 32.96 pmol/mg and 20.86 pmol/mg and 36.42 pmol/mg and 26.32 pmol/mg and 29.79 pmol/mg and 32.41 pmol/mg and 48.40 pmol/mg and 60.13 pmol/mg and 35.24 pmol/mg in series [2] (SI 3rd section (digesta), 80 ppm TCS via diet 4 weeks); 46.08 pmol/mg and 59.25 pmol/mg and 48.99 pmol/mg and 79.17 pmol/mg and 94.49 pmol/mg and 43.76 pmol/mg and 46.26 pmol/mg and 23.11 pmol/mg and 8.33 pmol/mg and 51.24 pmol/mg in series [2] (SI 4th section (digesta), 80 ppm TCS via diet 4 weeks). Also, the “share of TCS metabolites found” value was determined as 55.4% in series [2] (digesta of the 4th section of the mouse small intestine, 80 ppm TCS via diet 4 weeks) and 0.7% in series [2] (fecal content, 80 ppm TCS via diet 4 weeks). Besides, the “tcs, tcs-G in colon digesta” value was 0.05 pmol/mg and 0.09 pmol/mg and 0.07 pmol/mg and 0.08 pmol/mg and 0.03 pmol/mg and 0.02 pmol/mg in series [3] (CONV Swiss Webster mice); 3.55 pmol/mg and 2.97 pmol/mg and 3.05 pmol/mg and 2.08 pmol/mg and 2.61 pmol/mg in series [3] (GF Swiss Webster mice). Besides, in series [4] (TCS-exposed human subjects, n=7 urine samples), the “Profile in urine (%)” value was 98.39%. Further, the “Profile in stool (%)” value in series [4] (TCS-exposed human subjects, n=23 stool samples) is given as 0.80%. In addition, the “TCS metabolites in human stool” value is 10.69 pmol/ g stool and 5.96 pmol/ g stool and < LOD and 10.80 pmol/ g stool in series [4] (setting [8]); 10.24 pmol/ g stool and 13.69 pmol/ g stool and < LOD (3×) and 2.81 pmol/ g stool in series [4] (treatment time 1 month); 3.18 pmol/ g stool and 2.97 pmol/ g stool and < LOD (2×) and 4.42 pmol/ g stool in series [4] (treatment time 2 months); 7.01 pmol/ g stool and 5.96 pmol/ g stool and < LOD (3×) and 6.49 pmol/ g stool in series [4] (treatment time 3 months); 7.57 pmol/ g stool and < LOD (3×) and 3.12 pmol/ g stool and 4.69 pmol/ g stool in series [4] (treatment time 4 months). The “TCS metabolites in human urine” value in series [4] (setting [8]) is 18.4 nM urine and 3.47 nM urine and < LOD and 12.5 nM urine; in series [4] (treatment time 1 month), 626 nM urine; in series [4] (treatment time 2 months), 953 nM urine; in series [4] (treatment time 3 months) it was 771 nM urine; in series [4] (treatment time 4 months), 1037 nM urine and 70.9 nM urine and 1373 nM urine and 775 nM urine. For the same compound, the “average molar concentration ratio” value in series [4] (human stool) came out at 0.8%; in series [4] (human urine), 98.4%. For the same compound, in series [5], the “increase of AUC in colon digesta by antibiotic treatment” value was ~ 200 fold. Besides, in the series on MC38 cells (1 µM, 48 h), the Il-6 gene expression result is recorded as “does not”. Moreover, the “Il-6 (Fig. S16b)” value in the series on MC38 cells (MC38 cells, gene expression, replicates) is 1.072 and 0.7026 and 0.674 and 0.599 and 2.104 and 1.745 and 1.341 and 2.8489 and 1.88. Also, in the series on MC38 cells (MC38 cells, protein, replicates), the “IL-6 (Fig. S16c)” value is 30.76 pg/mL and 26.1 pg/mL and 35.84 pg/mL and 30.49 pg/mL and 20.04 pg/mL and 13.78 pg/mL and 35.28 pg/mL and 36.12 pg/mL and 25.88 pg/mL.

The values above are taken from publication PMC8748916, “Microbial enzymes induce colitis by reactivating triclosan in the mouse gastrointestinal tract” (Nature Communications, 2022).
